{"source": "a melting point compilation (Tetko et al.; mined from patent text by program, amines drawn as free bases though some values may be those of a salt)"}
{"units": {"melting point": "°C"}}
{"smiles": "CN1CCN(C(=O)CC2(C)OCCc3c2[nH]c2ccccc32)CC1", "note": "(stereo not given)", "melting point": "80 to 84"}
{"smiles": "c1ccc(OCCSCc2nnc(-c3ccc(OCCCN4CCOCC4)cc3)o2)cc1", "melting point": 65}
{"smiles": "COc1ccc(-n2nc(Sc3cccc4ccccc34)c(C)c(C#N)c2=O)cc1", "melting point": "181 to 183"}
{"smiles": "CCOC(=O)C1C=Nc2c(ccc(F)c2F)C1=O", "note": "(stereo not given)", "melting point": 270}
{"smiles": "CC(C)COc1ccc2sc(-c3ccccn3)nc(=O)c2c1", "melting point": 136}
{"smiles": "CCCCCCCCCCc1ccc(C(=O)NOCc2ccccc2)cc1", "melting point": "82 to 83"}
{"smiles": "CCCC(=O)C(=CNc1ccccc1COC(=O)c1ccccc1)C(=O)OCC", "melting point": "78 to 82"}
{"smiles": "Nc1ncnc2ncn(Cc3ccccc3)c12", "melting point": "252 to 255"}
{"smiles": "Fc1ccc(-c2[nH]nc(-c3ccccc3)c2-c2ccncc2)cc1", "melting point": "265 to 267"}
{"smiles": "Clc1ccccc1N1CCN(Cc2nc3ccccc3[nH]2)CC1", "melting point": "245 to 246"}
{"smiles": "COc1ccc(-c2cc3ccc(OC)cc3[nH]2)cc1", "melting point": "228 to 230"}
{"smiles": "CCOC(=O)C(SC)c1ccccc1NC", "note": "(stereo not given)", "melting point": "87.5 to 88.5"}
{"smiles": "Cc1ccc(C=O)n1Cc1ccc(Cl)cc1Cl", "melting point": "86 to 87"}
{"smiles": "O=C(O)CCC(Cl)(Cl)Cl", "melting point": 54.8}
{"smiles": "CC1(C)CCC(C)(C)c2cc3c(cc21)C(=O)C=CC3=O", "melting point": "161 to 163"}
{"smiles": "O=S(=O)(NC(CO)CO)c1ccc(Cl)s1", "melting point": "90 to 92"}
{"smiles": "Cc1cnn(-c2nc3ccccc3c(=O)[nH]2)c1", "melting point": "169 to 171"}
{"smiles": "N#Cc1ccc(C(=O)NCCCCn2cnc3c(N)nc4ccccc4c32)cc1", "melting point": "223 to 225"}
{"smiles": "CC(C)c1cc(NC(=O)N2CCN(c3ccnc(-c4cccc(F)c4F)n3)CC2)nnc1Cl", "melting point": "192 to 193"}
{"smiles": "CCN(CC)CC1CCCCN1CC(=O)N1c2cc(Cl)ccc2C(=O)Nc2cccnc21", "note": "(stereo not given)", "melting point": "168 to 169"}
{"smiles": "COc1cc(COc2nn(-c3ccccc3)cc2/C=C/c2coc(C(C)C)n2)ccc1OCc1nc(-c2ccc(CC(=O)O)cc2)oc1C", "melting point": "116 to 118"}
{"smiles": "CC(=NOCCOc1ccc(CC2SC(=O)NC2=O)cc1)c1ccc(-c2ccccc2)cn1", "note": "(stereo not given)", "melting point": "136 to 138"}
{"smiles": "CCCCC1(SCC)CCC2C3CCC4=CC(=O)C=CC4(C)C3(F)C(O)CC21C", "note": "(stereo not given)", "melting point": "185 to 187"}
{"smiles": "COCc1ccc(Oc2cc(OC)c3[nH]c(C4=NCC(CC(N)=O)S4)cc3c2)cn1", "note": "(stereo not given)", "melting point": "135 to 136"}
{"smiles": "Cn1ncc2[nH]c3cccc(-c4cccc(O)c4)c3c(=O)c21", "melting point": "> 300"}
{"smiles": "COc1ccc(C(=O)Nc2c(Cl)cncc2Cl)c2cc(C)oc12", "melting point": 233}
{"smiles": "N#CCCNC(=O)c1cccc(-c2cccc(Oc3cc(Cl)ccc3Cl)n2)c1", "melting point": "149 to 150"}
{"smiles": "CCc1cn(C2OC(CNC(=O)C(C)Oc3cc(OC)c(Cl)cc3Cl)C(O)C2F)c(=O)[nH]c1=O", "note": "(stereo not given)", "melting point": "151 to 156"}
{"smiles": "CSc1nc2cccccc-2n1", "melting point": "101 to 102"}
{"smiles": "O=C(NCCCc1ccc(CCl)cc1)c1ccc(-c2ccccn2)cc1", "melting point": "115 to 117"}
{"smiles": "O=C(NCCN1CCCC1)c1ccc(-c2ccc3nnn(Cc4ccc5ncccc5c4)c3n2)cc1F", "melting point": "183 to 186"}
{"smiles": "O=C1CC[C@]2(C[C@H]3CC[C@@H]2C3)C(=O)N1", "note": "(racemic)", "melting point": "154 to 156"}
{"smiles": "CCNCCCOc1ccc(-c2ccc(C(=O)OCC)cc2)cc1-c1ccc2c(c1)C(C)(C)CCC2(C)C", "melting point": 148}
{"smiles": "Oc1cc(-c2ncnc(C(F)(F)F)c2Cl)c(F)cc1Cl", "melting point": "130 to 132"}
{"smiles": "CC(=O)NCCC1CCc2c(F)cc3nn(C)cc3c21", "note": "(stereo not given)", "melting point": "116 to 119"}
{"smiles": "Fc1ccc(-c2cc(N3CCN(C4CC4)CC3)nc3c2CCCCCC3)cc1", "melting point": "125 to 128"}
{"smiles": "CCOC(=O)[C@H](Cc1cc(O)c(O)cc1I)NC=O", "melting point": "131 to 132"}
{"smiles": "CCNC(=O)c1ccc(-c2ccc3nnn(Cc4cc5cccnc5cc4F)c3n2)cc1Cl", "melting point": "197 to 199"}
{"smiles": "CCCCCCc1cccc(NC2=NCCS2)c1", "melting point": "79 to 80"}
{"smiles": "Nc1nc2ccccc2c2c1nc(COc1ccccc1)n2CCOc1ccccc1", "melting point": "168 to 170"}
